Results on 26 molecules are retold here after PubChem BioAssay AID651630 (Sanford-Burnham Center for Chemical Genomics, 2012).

Calls of active or inactive are those of the source.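 Rule for the calls: active = lipid-stain IC50 at or below a set limit, with nuclear-stain toxicity IC50 at least five times higher; inactive = the rest.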 Where only a bound is given, the exact number is not on record here.

One assay relates to DAPI. The experiment in a line: TAG lipid buildup inhibition with viability readout – cell-based, panel, Nile Red and DAPI fluorescence, H9c2, dose response (AID 651630).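 Note: cells exposed to compound overnight before fixation and staining.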 The note with it: H9c2 cells, DAPI nuclear fluorescence (cytotoxicity counter-readout), oleic acid.
Another assay has as its system TAG. The description is as above. The note with it: H9c2 cells, Nile Red TAG fluorescence, oleic acid.

Consider `Nc1cc2c(cc1Br)[nH]c(=O)c1ccccc12`, for which the IC50 cytotoxicity (DAPI nuclear signal decrease) is > 25 µM (inactive) in the assay on DAPI (mean of runs), greater than 25 µM with DAPI (run 1) and greater than 25 µM with DAPI (run 2). Besides, the figures for the concentration for half-maximal inhibition (IC50) in the assay with TAG (mean of runs), in the assay with TAG (run 1) and in the assay on TAG (run 2) were 8.3 µM, 8.66 µM and 7.94 µM, respectively.

For the molecule `O=C(CCC1CCCCC1)NCCN1C2=NC[C@@H](Cc3ccccc3)N2C[C@H]1Cc1ccc(O)cc1`, the IC50 cytotoxicity (DAPI nuclear signal decrease) in the assay with DAPI (mean of runs) is > 25 µM (inactive); with DAPI (run 1), greater than 25 µM; in the assay with DAPI (run 2), greater than 25 µM. For the same molecule, the values for the IC50 in the assay with TAG (mean of runs), in the assay with TAG (run 1) and in the assay with TAG (run 2) were > 25 µM (inactive), greater than 25 µM and greater than 25 µM, respectively.

As for `CC(C)C[C@@H](CN1CCCC1CN1C(=S)NC[C@@H]1Cc1ccc(O)cc1)N1C[C@H](Cc2ccccc2)N(CC2CCCCC2)C1=S` (stereo not given in full), the IC50 cytotoxicity (DAPI nuclear signal decrease) with DAPI (mean of runs) is 21.8 µM (inactive); with DAPI (run 1), 21.7 µM; with DAPI (run 2), 21.8 µM. Also, the IC50 in the assay with TAG (mean of runs) is > 25 µM (inactive); with TAG (run 1) it was greater than 25 µM; with TAG (run 2) it was greater than 25 µM.

Turning to `Cc1ccc(C(=O)Nc2cc(C)c(OCC(=O)N3CCOCC3)c(C)c2)cc1`, the figures for the IC50 cytotoxicity (DAPI nuclear signal decrease) in the assay on DAPI (mean of runs), with DAPI (run 1) and with DAPI (run 2) were > 25 µM (inactive), greater than 25 µM and greater than 25 µM, respectively. In addition, the IC50 was > 25 µM (inactive) with TAG (mean of runs), greater than 25 µM in the assay with TAG (run 1) and greater than 25 µM in the assay with TAG (run 2).

Consider `FC(F)Oc1ccc(-c2csc(NNC3=NCCCCC3)n2)cc1`, for which the IC50 cytotoxicity (DAPI nuclear signal decrease) with DAPI (run 1) and in the assay with DAPI (run 2) was greater than 25 µM throughout. The IC50 with TAG (mean of runs) was 2.55 µM; in the assay on TAG (run 1) it was 2.29 µM; with TAG (run 2) it was 2.81 µM.

In the case of `COc1ccc(NC(=O)C2(C)Cc3c(-c4cccc(C(N)=O)c4)ccnc3O2)cn1` (stereo not given), the IC50 cytotoxicity (DAPI nuclear signal decrease) in the assay on DAPI (mean of runs) was > 25 µM (inactive); with DAPI (run 1), greater than 25 µM; with DAPI (run 2), greater than 25 µM. The IC50 in the assay on TAG (mean of runs) is 18.5 µM (inactive); in the assay on TAG (run 1), 18 µM; with TAG (run 2), 18.9 µM.

Regarding `CN(C)CCCn1c(=O)n(C2CCCCC2)c(=O)c2c3c(sc21)CCCCC3`, the IC50 cytotoxicity (DAPI nuclear signal decrease) with DAPI (mean of runs) was > 25 µM (inactive); in the assay on DAPI (run 1), greater than 25 µM; with DAPI (run 2), greater than 25 µM. Further, the IC50 in the assay with TAG (mean of runs) was > 25 µM (inactive); with TAG (run 1) it was greater than 25 µM; in the assay with TAG (run 2) it was greater than 25 µM.

`C/C(=N\Nc1ccc(Cl)nn1)c1ccccc1O`: the IC50 cytotoxicity (DAPI nuclear signal decrease) is > 25 µM (inactive) with DAPI (mean of runs), greater than 25 µM with DAPI (run 1) and greater than 25 µM in the assay with DAPI (run 2). The IC50 in the assay on TAG (mean of runs) was > 25 µM (inactive); in the assay on TAG (run 1), greater than 25 µM; with TAG (run 2), greater than 25 µM.

On to `CC(=O)O[C@H]1C[C@@]2(C)[C@@H](C[C@@H](O)[C@H]3[C@@]4(C)CC[C@@H](O)[C@@H](C)[C@@H]4CC[C@@]32C)/C1=C(\CCC=C(C)C)C(=O)O`, for which the values for the IC50 cytotoxicity (DAPI nuclear signal decrease) in the assay on DAPI (mean of runs), with DAPI (run 1) and in the assay on DAPI (run 2) were > 25 µM (inactive), greater than 25 µM and greater than 25 µM, respectively. Also, the results for the IC50 in the assay with TAG (mean of runs), in the assay with TAG (run 1) and in the assay with TAG (run 2) were 18.5 µM (inactive), 15 µM and 22 µM, respectively.

`COc1ccc(-c2ccc3[nH]c4c(c3c2)CCN2C[C@@H]([C@H](C)OC(=O)Nc3cc(Cl)cc(Cl)c3)[C@@H](N(C)C(=O)Nc3cc(Cl)cc(Cl)c3)C[C@@H]42)cc1`: the figures for the IC50 cytotoxicity (DAPI nuclear signal decrease) in the assay with DAPI (mean of runs), in the assay on DAPI (run 1) and with DAPI (run 2) were > 25 µM (inactive), greater than 25 µM and greater than 25 µM, respectively. Besides, the IC50 with TAG (mean of runs) is 11.6 µM; with TAG (run 1) it was 9.42 µM; with TAG (run 2), 13.9 µM.

As to `CCCCCc1ccc(-c2cn(Cc3ccc(C(=O)c4ccccc4)cc3)nn2)cc1`, the IC50 cytotoxicity (DAPI nuclear signal decrease) is > 25 µM (inactive) with DAPI (mean of runs), greater than 25 µM with DAPI (run 1) and greater than 25 µM with DAPI (run 2). In addition, the half-inhibitory concentration (IC50) with TAG (run 1) is 17.9 µM; with TAG (run 2), greater than 25 µM.

`Cc1[nH]c2ccccc2c1C(c1ccccn1)N1CCC(C)CC1` (stereo not given): the IC50 cytotoxicity (DAPI nuclear signal decrease) was 21.8 µM (inactive) in the assay on DAPI (mean of runs), 21.2 µM in the assay with DAPI (run 1) and 22.4 µM in the assay with DAPI (run 2). Moreover, the IC50 in the assay on TAG (mean of runs) was 15.5 µM (inactive); with TAG (run 1), 14.8 µM; in the assay with TAG (run 2), 16.2 µM.

For the molecule `Cc1ccc(CC2(OCCN(C)C)CCC(C(C)(C)C)CC2)cc1` (stereo not given), the results for the IC50 cytotoxicity (DAPI nuclear signal decrease) in the assay with DAPI (mean of runs), with DAPI (run 1) and with DAPI (run 2) were 23.5 µM (inactive), 23.2 µM and 23.8 µM, respectively. Also, the IC50 with TAG (mean of runs) is > 25 µM (inactive); in the assay with TAG (run 1), greater than 25 µM; with TAG (run 2), greater than 25 µM.

Turning to `COc1cccc(NC(=O)N2CCc3nc(Nc4ccc(C(C)C)cc4)ncc3C2)c1`, the IC50 cytotoxicity (DAPI nuclear signal decrease) with DAPI (run 1) and in the assay on DAPI (run 2) was greater than 25 µM throughout. Further, the concentration for half-maximal inhibition (IC50) was 2.73 µM with TAG (mean of runs), 2.94 µM with TAG (run 1) and 2.52 µM in the assay with TAG (run 2).

As to `CN(C)c1ccc(NC(=O)CSc2nc3ccccc3c(=O)n2C2CCCCC2)cc1`, the IC50 cytotoxicity (DAPI nuclear signal decrease) in the assay on DAPI (mean of runs) is > 25 µM (inactive); in the assay on DAPI (run 1) it was greater than 25 µM; with DAPI (run 2), greater than 25 µM. The IC50 with TAG (run 1) is greater than 25 µM; with TAG (run 2), 20 µM.

With `COc1cccc(/C=C/C(=C2\C(=O)N(c3ccccc3)N=C2C)c2ccc(Br)cc2)c1OC`, the IC50 cytotoxicity (DAPI nuclear signal decrease) was > 25 µM (inactive) in the assay with DAPI (mean of runs), greater than 25 µM in the assay on DAPI (run 1) and greater than 25 µM in the assay with DAPI (run 2). Besides, the IC50 in the assay with TAG (mean of runs) is 5.18 µM; with TAG (run 1), 5.94 µM; with TAG (run 2), 4.43 µM.

On to `O=C(Nc1ccccc1N1CCCCC1)c1ncoc1-c1ccc(F)cc1`, for which the values for the IC50 cytotoxicity (DAPI nuclear signal decrease) with DAPI (mean of runs), in the assay with DAPI (run 1) and with DAPI (run 2) were > 25 µM (inactive), greater than 25 µM and greater than 25 µM, respectively. Besides, the IC50 is > 25 µM (inactive) with TAG (mean of runs), greater than 25 µM in the assay with TAG (run 1) and greater than 25 µM in the assay with TAG (run 2).

Turning to `CCOc1ccc(OCC)c(NC(=O)CN(c2ccc(C)cc2)S(=O)(=O)c2c(C)noc2C)c1`, the IC50 cytotoxicity (DAPI nuclear signal decrease) was > 25 µM (inactive) in the assay on DAPI (mean of runs), greater than 25 µM in the assay on DAPI (run 1) and greater than 25 µM in the assay with DAPI (run 2). Besides, the IC50 in the assay with TAG (mean of runs) was 19.6 µM (inactive); in the assay with TAG (run 1), 17.1 µM; in the assay on TAG (run 2), 22 µM.

`Cc1ccc(S(=O)(=O)NC2=C(N3CCN(c4ccccc4F)CC3)C(=O)c3ccccc3C2=O)cc1`: the IC50 cytotoxicity (DAPI nuclear signal decrease) in the assay with DAPI (mean of runs) is > 25 µM (inactive); in the assay on DAPI (run 1), greater than 25 µM; with DAPI (run 2), greater than 25 µM. Also, the figures for the half-inhibitory concentration (IC50) in the assay with TAG (mean of runs), in the assay with TAG (run 1) and with TAG (run 2) were 8.82 µM, 8.52 µM and 9.11 µM, respectively.

In the case of `COc1ccc(C[C@H]2CN3C(=NC[C@@H]3Cc3ccc(O)cc3)N2CCNC(=O)c2ccc(C)c(Br)c2)cc1`, the IC50 cytotoxicity (DAPI nuclear signal decrease) with DAPI (run 1) is 24 µM; in the assay on DAPI (run 2), greater than 25 µM. In addition, the IC50 in the assay with TAG (mean of runs) was > 25 µM (inactive); in the assay on TAG (run 1), greater than 25 µM; with TAG (run 2) it was greater than 25 µM.

For the molecule `Cc1noc(C)c1COc1cccc(C(=O)OCC(=O)N2CC(=O)Nc3ccccc32)c1`, the figures for the IC50 cytotoxicity (DAPI nuclear signal decrease) with DAPI (mean of runs), with DAPI (run 1) and in the assay on DAPI (run 2) were > 25 µM (inactive), greater than 25 µM and greater than 25 µM, respectively. In addition, the IC50 with TAG (mean of runs) was 15.4 µM (inactive); with TAG (run 1) it was 11.2 µM; with TAG (run 2), 19.7 µM.

For the molecule `CS(=O)(=O)c1ccc(C(=O)OCC(=O)N2CCOCC2)cc1[N+](=O)[O-]`, the IC50 cytotoxicity (DAPI nuclear signal decrease) is > 25 µM (inactive) with DAPI (mean of runs), greater than 25 µM in the assay on DAPI (run 1) and greater than 25 µM in the assay on DAPI (run 2). Also, the IC50 in the assay on TAG (mean of runs) is > 25 µM (inactive); in the assay on TAG (run 1), greater than 25 µM; in the assay on TAG (run 2), greater than 25 µM.

Turning to `O=[N+]([O-])c1ccc(Nc2nc(NC3CCCCC3)nc(N3CCCC3)n2)cc1`, the IC50 cytotoxicity (DAPI nuclear signal decrease) in the assay on DAPI (mean of runs) was > 25 µM (inactive); in the assay with DAPI (run 1), greater than 25 µM; in the assay on DAPI (run 2), greater than 25 µM. Further, the results for the concentration for half-maximal inhibition (IC50) with TAG (run 1) and with TAG (run 2) were greater than 25 µM and 11.1 µM, respectively.

For `O=C(Nc1ccccc1)c1ccc(NCC2CCCO2)c(S(=O)(=O)N2CCOCC2)c1` (stereo not given), the IC50 cytotoxicity (DAPI nuclear signal decrease) in the assay with DAPI (mean of runs) is > 25 µM (inactive); with DAPI (run 1), greater than 25 µM; with DAPI (run 2), greater than 25 µM. The IC50 in the assay on TAG (mean of runs) is > 25 µM (inactive); in the assay with TAG (run 1), greater than 25 µM; with TAG (run 2), greater than 25 µM.

Regarding `Cc1ccc(Sc2cc(N3CCOCC3)nc(-c3ccccc3)n2)cc1`, the IC50 cytotoxicity (DAPI nuclear signal decrease) was > 25 µM (inactive) in the assay on DAPI (mean of runs), greater than 25 µM in the assay on DAPI (run 1) and greater than 25 µM with DAPI (run 2). Further, the IC50 in the assay with TAG (mean of runs) is > 25 µM (inactive); in the assay with TAG (run 1), greater than 25 µM; in the assay with TAG (run 2), greater than 25 µM.

Consider `CC(C)(C)NC(=O)C[C@H]1C[C@H](C(=O)N2CCCCC2)[C@@]2(CCc3ccccc3)c3[nH]c4ccc(Cl)cc4c3CCN2C1=O`, for which the IC50 cytotoxicity (DAPI nuclear signal decrease) was > 25 µM (inactive) in the assay on DAPI (mean of runs), greater than 25 µM in the assay with DAPI (run 1) and greater than 25 µM with DAPI (run 2). Also, the results for the IC50 in the assay on TAG (mean of runs), in the assay with TAG (run 1) and with TAG (run 2) were 17.7 µM (inactive), 17.1 µM and 18.2 µM, respectively.

One may read the IC50 as the concentration that gives 50% inhibition.
